These are literature values, as cited in patent US20160304829A1, “Automated Superparamagnetic Particle Handling System” (LIFE TECHNOLOGIES AS, priority 2006, published 2016).

For this data set, the target named is streptavidin (Streptomyces avidinii, UniProt P22629). Conditions: Piran & Riordan 1990.
Sequence of streptavidin (P22629 25-183): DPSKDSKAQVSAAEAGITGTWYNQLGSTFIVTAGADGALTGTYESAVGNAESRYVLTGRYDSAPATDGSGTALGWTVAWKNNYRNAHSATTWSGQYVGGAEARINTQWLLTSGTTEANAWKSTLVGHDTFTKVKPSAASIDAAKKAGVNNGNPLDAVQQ

`O=C(O)CCCC[C@@H]1SC[C@@H]2NC(=O)N[C@@H]21` [biotin, cis-hexahydro-2oxo-1H-thieno [3,4]imidazole-4-pentanoic acid]: the “dissociation from streptavidin, times faster than dissociation from avidin” value is given as “about 30 times”.
